# Entries after “also recorded” stand apart in the source; their conditions may differ. Non-standard residues stand in square brackets, D forms with d. No end group written: not given here. Aib = CC(C)(N)C(=O)O
# Columns and labels:
# Type in all cases: physicochemical
# [1] = AFM of self-assembly with or without magnetic field
# Procedure: AFM was performed using the NX10 system (Park Systems, Korea) in a non-contact mode with PPP-NCHR AFM probes (Nanosensors, Switzerland). The peptide complex (specimen) dispersed in an aqueous solvent was placed between neodymium magnets and measurements were compared before and after the application of a magnetic field. The magnetic field intensity was measured using a Model 450 gaussmeter (Lake Shore Cryotronics, USA).
# It was confirmed that the peptide complex according to the present disclosure is highly sensitive to a magnetic field and the α-helix structure can be controlled with a magnetic field. It was also investigated whether the self-assembly process of the peptide complex is affected by a magnetic field. The peptide complexes of Examples 51 and 99 were dissolved in aqueous solvents to induce self-assembly. The aqueous solvents were sonicated to prevent aggregation for clear observation. The aqueous solvent was placed in the equipment shown in FIG. 44f and measured by AFM after incubation overnight. The AFM measurement was also made before the treatment for comparison before and after the application of the magnetic field.
# [2] = MCD (magnetic circular dichroism) under 1.6 T magnetic field; conditions: magnetic field of 1.6 T applied (MCD)
# Procedure: (§1) MCD (magnetic circular dichroism) spectra were obtained using a Jasco-815 159-L spectrophotometer (Jasco, Japan). The concentration of the peptides was 20 μM in distilled water. Measurements were performed using a 2-mm path-length cuvette. The magnetic field of the permanent magnet in the MCD accessory (PM-491) was 1.6 T. Each scan was repeated three times and averaged.
# as §1, with “peptide complex” for “peptides”
# MCD (magnetic circular dichroism) analysis was performed to investigate whether the helical stability of the αm peptide in the peptide complex according to the present disclosure is affected by the magnetic field. The peptide complexes of Examples 47 and 99 have partially stable α-helices. When a magnetic field of 1.6 T was applied to the peptide complexes of Examples 47 and 99 (FIGS. 44d, 44e), the contents of α-helices, i.e. the [θ]222/[6]208 ratios, were increased in both molecules. […]
# [3] = CD (circular dichroism) spectroscopy of α-helix structure; conditions: for θ222 nm/θ208 nm ratio: Table 11, peptide complexes of Examples 37-97; for [6]222/[θ]208 ratio: before magnetic field (CD), 20 μM in distilled water
# Procedure: To evaluate the structures of a linear plasmid DNA and peptides, CD spectra were analyzed using a Chirascan CD spectrometer (Applied Photophysics, UK). […] The final concentration of the linear plasmid DNA was 30 ng/μL. All the samples were dissolved in H2O. For the formation of the artificial chromosome, a mixture of the peptide and the DNA was incubated for 12 days or longer. Scanning was performed using a 2-mm path-length cuvette. Each scan was repeated three times and averaged. MRE (mean residue ellipticity) was calculated based on the number of amino acid residues.
# CD (circular dichroism) spectroscopy was performed as follows.
# The CD spectra were analyzed using a Chirascan CD spectrometer (Applied Photophysics, UK). […] All the samples were dissolved in H2O. Each scan was repeated three times using a 2-mm path-length cuvette and averaged. MRE (mean residue ellipticity) was calculated based on the number of amino acid residues.
# [4] = NMR residual dipolar couplings (RDC) under magnetic field; conditions: difference of 21.14 T and 16.45 T; 21 residues of α10; methanol-d3/chloroform-d
# Procedure: ^1H NMR and ^2D ^1H-^15N IPAP-HSQC (in-phase/anti-phase heteronuclear single quantum coherence) NMR spectra were acquired at 298 K using a Bruker AVANCE IV 900 MHz spectrometer and a BrukerAVANCE Ill HD 700 MHz spectrometer, both equipped with cryogenic probes. The NMR sample of PEG30-α10-PEG30 was dissolved in methanol-d3/chloroform-d (1:1) containing 0.05% TFA at a concentration of 4.26 mM. The acquisition parameters of IPAP were 2048 t2×1024 t1 points, 8 scans, 0.2 second recycle delay, 14 ppm spectral width for ^1H and 26 ppm spectral width for ^15N. The acquired data were split into two data sets, IP and AP, using a TopSpin software (Bruker, Germany). […]
# Anisotropic diamagnetic molecules placed in an isotropic solution are aligned when a magnetic field is applied. The behavior of the peptide according to the present disclosure under a magnetic field was analyzed. For this, RDCs (residual dipolar couplings) between ^1H-^15N amide pairs (^1DNH) were measured by NMR (nuclear magnetic resonance) at 16.45 T (700.400 MHz) and 21.14 T (900.230 MHz). […]
# Specifically, ^1H NMR and ^2D ^1H-^15N IPAP-HSQC (in-phase/anti-phase heteronuclear single quantum coherence) NMR spectra were analyzed at 298 K using a BrukerAVANCE IV 900 MHz spectrometer and a BrukerAVANCE Ill HD 700 MHz spectrometer equipped with cryogenic probes. […] Peak positions were analyzed using the NMRFAM-SPARKY software.
# [5] = AFM analysis of self-assembled peptide complexes; conditions: for Average diameter (nm) / AFM morphology: Table 12, self-assembled structure; for AFM morphology: 25 μM in distilled water
# Procedure: AFM was performed using an NX10 system (Park Systems, Korea) in a non-contact mode with PPP-NCHR AFM probes (Nanosensors, Switzerland). The DNA concentration ranged from 1 to 30 ng/μL and the peptide concentration ranged from 1 to 32 μM (in H2O). 2 μL of the sample solution was cast onto a freshly cleaved mica surface and dried. The data obtained by the SmartScan program (Park Systems, Korea) was analyzed using the XEI program (Park Systems, Korea).
# The CD spectroscopy was performed in the same manner as in Test Example 2 and the AFM was performed using the NX10 system (Park Systems, Korea) in a non-contact mode with PPP-NCHR AFM probes (Nanosensors, Switzerland). The peptide complex concentration ranged from 1 to 32 μM (in H2O). 2 μL of the sample solution was cast onto a freshly cleaved mica surface and dried. The data obtained by the SmartScan program (Park Systems, Korea) were analyzed using the XEI program (Park Systems, Korea).
# The peptide complexes of Examples 37-40 were imaged by AFM. 25 μM of the peptide complex was dissolved in distilled water, sonicated for 5 minutes, incubated overnight and dropped on mica for measurement.
# [6] = in the absence of the magnetic field
# [7] = Table 9, linear and cyclic αm-PEG10 peptide complexes, in H2O
# [8] = Table 14, coil-rod-coil peptide complexes
Substance,θ222 nm/θ208 nm ratio [3],Average diameter (nm) [5],AFM morphology [5],other results
WAUAUAUAUAU(PEG2)5 [Example 47],0.84,,,"self-assembled structure [1, 6]: highly uniform micelle-like spherical self-assembled structures; self-assembled structure ([1]; magnetic field (0.07 T) applied): anisotropic and unique planar nanostructures; [6]222/[θ]208 ratio [2]: 0.91; [θ]222/[θ]208 [3, 7]: 0.84; [6]222/[θ]208 ratio [3]: 0.86"
WAUAUAUAUAU(PEG2)5 [Example 99],,,,"self-assembled structure [1, 6]: vesicle-like spherical self-assembled structures; self-assembled structure ([1]; magnetic field (0.25 T) applied): cruciform anisotropic nanostructures; [6]222/[θ]208 ratio [2]: 1.01; [θ]222/[θ]208 [3, 7]: 0.93; [θ]222/[θ]208 ([3]; Table 13, cyclic peptide complexes): 0.93; [6]222/[θ]208 ratio [3]: 0.89"
(PEG10)3AUAUAUAUAUAUAUAUAUAUA(PEG10)3 [Example 128],,,,"[θ]222/[θ]208 [3, 8]: 1.15; average RDC value (1DNH, exp) [4]: 2.007 Hz"
RRAUAUAUAUAUAUAUAUAUAUAGRGDRGDRGDG (RRA[Aib]A[Aib]A[Aib]A[Aib]A[Aib]A[Aib]A[Aib]A[Aib]A[Aib]A[Aib]AGRGDRGDRGDG) [Example 68],0.89,40-110 nm,Vesicle,
"Example 39: peptide complex (Wαm-RGD), SEQ ID NO 39 (A[Aib]A[Aib]A[Aib]A[Aib]A[Aib]A[Aib]A[Aib]AGRGDRGDG)",0.7,20 nm,Micelle,"average diameter ([5]; AFM): 20 nm; self-assembly behavior in an aqueous solvent ([5]; AFM): self-assembled into spherical particles such as micelles; also recorded: micelle particles; average height ([5]; AFM, FIG. 80): 2-4 nm; length of micelle particles ([5]; AFM, FIG. 80): 6-10 nm"
"Example 41: peptide complex (Wαm-RGD, Wαm-GS), SEQ ID NO 41 (A[Aib]A[Aib]A[Aib]A[Aib]A[Aib]A[Aib]A[Aib]A[Aib]A[Aib]A[Aib]AGRGDRGDRGDG)",0.91,20-40 nm,Micelle,
AUAUAUAUAUAUAUA(PEG8)2 [Example 53],1.11,20-30 nm,Micelle,
EEEEAUAUAUAUAUAUAUAUAUAUA(PEG8)2 (EEEEAXAXAXAXAXAXAXAXAXAXA; (PEG8)2 C-terminal; SITE 6 2-aminoisobutyric acid; SITE 8 2-aminoisobutyric acid; SITE 10 2-aminoisobutyric acid; SITE 12 2-aminoisobutyric acid; SITE 14 2-aminoisobutyric acid; SITE 16 2-aminoisobutyric acid; SITE 20 2-aminoisobutyric acid; SITE 18 2-aminoisobutyric acid; SITE 22 2-aminoisobutyric acid; SITE 24 2-aminoisobutyric acid) [Example 93],1.16,180-360 nm,Vesicle,
RGDRGDAUAUAUAUAUAUAUAUAUAUAR [Example 70],1.14,50 nm,Vesicle,
"Example 37: peptide complex (Wαm-RGD), SEQ ID NO 37 (A[Aib]A[Aib]A[Aib]A[Aib]AGRGDRGDG)",0.28,,Irregular vesicle,
EAUAUAUAUAUAUAUAUAUAUAGSGSGSGS (EA[Aib]A[Aib]A[Aib]A[Aib]A[Aib]A[Aib]A[Aib]A[Aib]A[Aib]A[Aib]AGSGSGSGS) [Example 95],1.2,240-280 nm,Vesicle,
(PEG8)2AUAUAUAUAUAUAUAUAUAUA(PEG8)2 [Example 125],,,,"self-assembly behavior in an aqueous solvent ([5]; AFM): did not self-assemble; [θ]222/[θ]208 [3, 8]: 1.21; [θ]222/[θ]203 ratio ([3]; depending on concentration): 1.1-1.2"

# More lines, main results first:
θ222 nm/θ208 nm ratio [3],Average diameter (nm) [5],AFM morphology [5],Substance,other results
1.1,30-40 nm,Micelle,RAUAUAUAUAUAUAUAUAUAUARGDRGDRGD [Example 64],
0.94,20 nm,Micelle,RAUAUAUAUAUAUAUAUAUAUARGDRGDRGDRGD [Example 65],
1.2,200 nm,Vesicle,EEEAUAUAUAUAUAUAUAUAUAUA(PEG8)2 [Example 92],
1.22,30-80 nm,Vesicle,(PEG8)2 AUAUAUAUAUAUAUAUAUAUA [Example 57],
1.12,50-100 nm,Vesicle,RGDRGDRGDAUAUAUAUAUAUAUAUAUAUAR [Example 71],
0.77,160-410 nm,Vesicle,RAUAUAUAUAUAUAUA(PEG8)2 [Example 59],
1.08,110-150 nm,Vesicle,RRRAUAUAUAUAUAUAUAUAUAUA(PEG8)2 [Example 62],
1.21,20-30 nm,Micelle,EAUAUAUAUAUAUAUAUAUAUA(PEG8)2 [Example 90],

# Reference: patent US20240424134A1, “PEPTIDE HAVING INDEPENDENTLY STABILIZED HYDROPHOBIC ALPHA HELIX, PEPTIDE COMPLEX COMPRISING SAME AND USES THEREOF” (UIF (University Industry Foundation), Yonsei University, priority 2022, published 2024)
